Experimental findings from US20120129811A1, “TRICYCLIC INHIBITORS OF PRO-MATRIX METALLOPROTEINASE ACTIVATION” (priority 2010, published 2012) are described below.

Where a name gives a salt, the structure may show the parent alone. Some results are limits rather than exact numbers.

Experiment [1] has as its target T1, proMMP9(20-445;ΔFnII) (SEQ ID NO:6) (Homo sapiens, UniProt P14780, DEL216-390).
T1 construct: start methionine (N); made in house; host or cells: E. coli BL21(DE3) RIL
T1 sequence (P14780 with tags, fused parts or gaps DEL216-390): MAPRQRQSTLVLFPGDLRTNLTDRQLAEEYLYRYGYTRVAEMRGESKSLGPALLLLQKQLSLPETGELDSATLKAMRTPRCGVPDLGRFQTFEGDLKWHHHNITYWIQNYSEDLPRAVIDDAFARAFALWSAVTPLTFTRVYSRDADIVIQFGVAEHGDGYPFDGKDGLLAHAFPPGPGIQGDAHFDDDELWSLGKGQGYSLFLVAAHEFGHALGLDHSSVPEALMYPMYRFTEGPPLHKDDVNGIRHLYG
Put plainly: ThermoFluor binding assay with proMMP9(20-445;ΔFnII). The method, then: (§1) The ThermoFluor® (TF) assay is a 384-well plate-based binding assay that measures thermal stability of proteins (Biomol Screen 2001, 6, 429-40; Biochemistry 2005, 44, 5258-66). The experiments were carried out using instruments available from Johnson & Johnson Pharmaceutical Research & Development, LLC. TF dye used in all experiments was […] (1,8-ANS) (Invitrogen: A-47).
(§2) Compounds were arranged in a pre-dispensed plate (Greiner Bio-one: 781280), wherein compounds were serially diluted in 100% DMSO across 11 columns within a series. Columns 12 and 24 were used as DMSO reference and contained no compound. For multiple compound concentration-response experiments, the compound aliquots (50 nL) were robotically predispensed directly into black 384-well polypropylene PCR microplates (Abgene: TF-0384/k) using a Cartesian Hummingbird liquid handler (DigiLab, Holliston, Mass.). Following compound dispense, protein and dye solutions were added to achieve the final assay volume of 3 μL. The assay solutions were overlayed with 1 μL of silicone oil (Fluka, type DC 200: 85411) to prevent evaporation.
(§3) Assay plates were robotically loaded onto a thermostatically controlled PCR-type thermal block and then heated from 40 to 90° C. at a ramp-rate of 1° C./min for all experiments. Fluorescence was measured by continuous illumination with UV light (Hamamatsu LC6) supplied via fiber optics and filtered through a band-pass filter (380-400 nm; >60D cutoff). Fluorescence emission of the entire 384-well plate was detected by measuring light intensity using a CCD camera (Sensys, Roper Scientific) filtered to detect 500±25 nm, resulting in simultaneous and independent readings of all 384 wells. A single image with 20-sec exposure time was collected at each temperature, and the sum of the pixel intensity in a given area of the assay plate was recorded vs temperature and fit to standard equations to yield the Tm (J Biomol Screen 2001, 6, 429-40).
(§4) Thermodynamic parameters necessary for fitting compound binding for each proMMP were estimated by differential scanning calorimetry (DSC) and from ThermoFluor® data. The heat capacity of unfolding for each protein was estimated from the molecular weight and from ThermoFluor® dosing data.
ThermoFluor® with proMMP9(20-445; ΔFnII (SEQ ID NO:6)
The protein sample preparations included a desalting buffer exchange step via a PD-10 gravity column (GE Healthcare). The desalting buffer exchange was performed prior to diluting the protein to the final assay concentration of 2.8 μM proMMP9(20-445;ΔFnII) (SEQ ID NO:6). The concentration of proMMP9(20-445;ΔFnII) (SEQ ID NO:6) was determined spectrophotometrically based on a calculated extinction coefficient of ε280=39880 M^−1 cm^−1, a calculated molecular weight of 28.2 kDa, and calculated pI of 5.5. ThermoFluor® reference conditions were define as follows: 80 μg/mL (2.8 μM) proMMP9(20-445;ΔFnII) (SEQ ID NO:6), 50 μM 1,8-ANS, pH 7.0 Buffer (50 mM HEPES pH 7.0, 100 mM NaCl, 0.001% Tween-20, 2.5 mM MgCl2, 300 μM CaCl2). The thermodynamic parameters for proMMP9(20-445;ΔFnII) (SEQ ID NO:6) are as follows: Tm (° C.)=72 (+/−0.1), ΔUH(Tm) (cal mol^−1)=160000(+/−5000), ΔUSTm (cal mol^−1 K^−1)=434, ΔUCp (cal mol^−1 K^−1)=2400.
On the technique in general: DSF heats the sample and reads unfolding from a dye or from intrinsic fluorescence.

In experiment [2] the target is T2, proMMP9(67-444;ΔFnII) (SEQ ID NO:5) (Homo sapiens, UniProt P14780, DEL216-390).
T2 construct: start methionine (N); made in house; host or cells: E. coli BL21(DE3) RIL
T2 sequence (P14780 with tags, fused parts or gaps DEL216-390): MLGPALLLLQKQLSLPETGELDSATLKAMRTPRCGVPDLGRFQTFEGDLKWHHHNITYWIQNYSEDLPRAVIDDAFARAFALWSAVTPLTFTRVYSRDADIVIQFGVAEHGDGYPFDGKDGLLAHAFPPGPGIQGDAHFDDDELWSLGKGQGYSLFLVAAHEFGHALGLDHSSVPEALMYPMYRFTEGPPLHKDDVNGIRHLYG
The experiment in a line: ThermoFluor binding assay with proMMP9(67-444;ΔFnII). The method, then: as §1, §2, §3, §4
ThermoFluor® with proMMP9(67-444;ΔFnM (SEQ ID NO:5)
The protein sample preparations had to include a desalting buffer exchange step via a PD-10 gravity column (GE Healthcare). The desalting buffer exchange was performed prior to diluting the protein to the final assay concentration of 3.5 μM proMMP9(67-444;ΔFnII) (SEQ ID NO:5). The concentration of proMMP9(67-444;ΔFnII) (SEQ ID NO:5) was determined spectrophotometrically based on a calculated extinction coefficient of ε280=33900 M^−1 cm^−1, a calculated molecular weight of 22.6 kDa, and calculated pI of 5.20. ThermoFluor® reference conditions were defined as follows: 80 μg/mL (3.5 μM) proMMP9(67-444;ΔFnII) (SEQ ID NO:5), 50 μM 1,8-ANS, pH 7.0 Buffer (50 mM HEPES pH 7.0, 100 mM NaCl, 0.001% Tween-20, 2.5 mM MgCl2, 300 μM CaCl2). The thermodynamic parameters for proMMP9(67-444;ΔFnII) (SEQ ID NO:5) are as follows: Tm (° C.)=63 (+/−0.1), ΔUH(Tm)(cal mol^−1)=105000(+/−5000), ΔUS(Tm) (cal mol^−1 K^−1)=450, ΔUCp (cal mol^−1 K^−1)=2000.

Experiment [3] deals with T3, full-length proMMP9(1-707) activation by catalytic MMP3 (Homo sapiens, UniProt P14780, R574P).
T3 construct: made in house; host or cells: proMMP9: HEK293 (secreted); MMP3: E. coli
T3 sequence (P14780 20-707 R574P): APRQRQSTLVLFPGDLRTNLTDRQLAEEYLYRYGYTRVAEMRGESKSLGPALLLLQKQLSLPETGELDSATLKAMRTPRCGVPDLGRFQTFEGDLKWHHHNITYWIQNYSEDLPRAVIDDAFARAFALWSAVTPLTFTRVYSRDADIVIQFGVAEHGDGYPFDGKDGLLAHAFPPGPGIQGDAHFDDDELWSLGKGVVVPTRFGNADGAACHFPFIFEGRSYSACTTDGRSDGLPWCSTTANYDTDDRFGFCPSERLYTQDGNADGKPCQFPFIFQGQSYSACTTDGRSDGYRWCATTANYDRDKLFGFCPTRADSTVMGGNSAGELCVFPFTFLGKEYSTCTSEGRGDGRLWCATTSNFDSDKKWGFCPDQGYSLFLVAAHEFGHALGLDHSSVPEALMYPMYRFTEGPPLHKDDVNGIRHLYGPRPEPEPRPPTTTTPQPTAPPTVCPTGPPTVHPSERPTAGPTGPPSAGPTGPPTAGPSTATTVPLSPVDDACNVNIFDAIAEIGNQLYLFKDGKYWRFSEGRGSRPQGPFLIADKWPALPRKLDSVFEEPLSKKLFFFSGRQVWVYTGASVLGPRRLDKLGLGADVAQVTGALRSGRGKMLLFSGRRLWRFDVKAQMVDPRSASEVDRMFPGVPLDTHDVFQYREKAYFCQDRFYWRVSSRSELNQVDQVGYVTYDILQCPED
The experiment in a line: proMMP9/MMP3 P126 Activation Assay. The class given is biochemical. The method, then: proMMP9/MMP3 P126 Activation Assay
The reaction volume was 50 μL. […] Reactivity of residual MMP3 towards P-126 substrate was minimal under these conditions.

The term Kd denotes the equilibrium constant for the complex coming apart. A higher Kd goes with a looser complex. In general, IC50 refers to the concentration that gives 50% inhibition. Regarding `CC(C)Oc1ccc(S(C)(=O)=O)cc1Nc1nc2c(ccc3ncn(CC(F)(F)F)c32)s1` [Example 146, (2-Isopropoxy-5-methanesulfonyl-phenyl)-[8-(2,2,2-trifluoro-ethyl)-8H-imidazo[4′,5′:3,4]-benzo[2,1-d]thiazol-2-yl]-amine.TFA], the Kd turned out to be 3.1 µM in experiment [1] and 0.64 µM in experiment [2]. The compound also registered an IC50 in experiment [3] of 0.8 µM.

Take `COc1ccc(S(N)(=O)=O)cc1Nc1nc2c(ccc3ncn(C)c32)s1` [Example 130, 4-Methoxy-3-(8-methyl-8H-imidazo[4′,5′:3,4]benzo[2,1-d]thiazol-2-ylamino)-benzenesulfonamide.TFA]: the figures for the Kd in experiment [1] and in experiment [2] were greater than 95 µM and 1.2 µM, respectively. The compound further gave an IC50 in experiment [3] of 0.83 µM.

For the compound `CCn1c(C)nc2ccc3sc(Nc4cc(S(C)(=O)=O)ccc4OC)nc3c21` [Example 133, (8-Ethyl-7-methyl-8H-imidazo[4′,5′:3,4]benzo[2,1-d]thiazol-2-yl)-(5-methanesulfonyl-2-methoxy-phenyl)-amine.TFA], the Kd in experiment [1] stood at 1.3 µM; in experiment [2], 0.31 µM. In addition, the IC50 in experiment [3] turned out to be 0.28 µM.

Turning to `COc1ccc(NC(C)=O)cc1Nc1nc2c(ccc3c2ncn3C)s1` [Example 49, N-[4-Methoxy-3-(6-methyl-6H-imidazo[4′,5′:3,4]benzo[2,1-d]thiazol-2-ylamino)-phenyl]-acetamide.HCl], the values for the Kd in experiment [1] and in experiment [2] were 4.6 µM and 1.6 µM, respectively. Moreover, in experiment [3], the IC50 worked out at 1.3 µM.

Take `COc1ccc(NC(N)=O)cc1Nc1nc2c(ccc3c2ncn3C)s1` [Example 87, [4-Methoxy-3-(6-methyl-6H-imidazo[4′,5′:3,4]benzo[2,1-d]thiazol-2-ylamino)-phenyl]-urea.HCl]: the equilibrium dissociation constant (Kd) in experiment [1] amounted to 6 µM; in experiment [2], 1.6 µM. This compound gave an IC50 in experiment [3] of 0.65 µM.

On to `Cc1nc2ccc3sc(Nc4ccccc4OC(C)C)nc3c2s1` [Example 17, (2-Isopropoxy-phenyl)-(2-methyl-benzo[1,2-d;3,4-d′]-bisthiazol-7-yl)-amine.HCl], for which the Kd in experiment [1] and in experiment [2] was greater than 95 µM each time. Half-maximal inhibition in experiment [3] (IC50) required 5.8 µM.

As to `CCn1c(C)nc2ccc3sc(Nc4cc(S(N)(=O)=O)ccc4OC)nc3c21` [Example 129, 3-(8-Ethyl-7-methyl-8H-imidazo[4′,5′:3,4]benzo[2,1-d]thiazol-2-ylamino)-4-methoxy-benzenesulfonamide.TFA], the results for the equilibrium dissociation constant (Kd) in experiment [1] and in experiment [2] were 1.2 µM and 0.52 µM, respectively. Further, the midpoint of inhibition in experiment [3], the IC50, lay at 0.42 µM.

`Cc1nc2ccc3sc(Nc4cc(S(N)(=O)=O)ccc4OC(C)C)nc3c2n1CC(F)(F)F` [Example 136, 4-Isopropoxy-3-[7-methyl-8-(2,2,2-trifluoro-ethyl)-8H-imidazo[4′,5′:3,4]benzo[2,1-d]thiazol-2-ylamino]-benzenesulfonamide.TFA]: the Kd in experiment [1] is 0.77 µM; in experiment [2] it was 0.59 µM. This compound yielded an IC50 in experiment [3] of 1.1 µM.

With `CCn1ncc2c3nc(Nc4cc(S(C)(=O)=O)ccc4OC)sc3ccc21` [Example 106, (6-Ethyl-6H-3-thia-1,6,7-triaza-as-indacen-2-yl)-(5-methanesulfonyl-2-methoxy-phenyl)-amine.TFA], the results for the Kd in experiment [1] and in experiment [2] were 0.6 µM and 0.53 µM, respectively. The compound also had an IC50 in experiment [3] of 0.19 µM.

For the compound `COc1ccc(S(C)(=O)=O)cc1Nc1nc2c(ccc3nc(C)n(CC(F)(F)F)c32)s1` [Example 138, (5-Methanesulfonyl-2-methoxy-phenyl)-[7-methyl-8-(2,2,2-trifluoro-ethyl)-8H-imidazo[4′,5′:3,4]benzo[2,1-d]thiazol-2-yl]-amine.TFA], the Kd in experiment [1] came out at 0.69 µM; in experiment [2], 0.48 µM. In addition, it took 0.56 µM to reach half-maximal inhibition in experiment [3] (IC50).

Take `Cn1cnc2ccc3sc(Nc4cc(S(N)(=O)=O)ccc4OC(F)(F)F)nc3c21` [Example 128, 3-(8-Methyl-8H-imidazo[4′,5′:3,4]benzo[2,1-d]thiazol-2-ylamino)-4-trifluoromethoxy-benzenesulfonamide.TFA]: the Kd in experiment [1] turned out to be 4.9 µM; in experiment [2], 1.5 µM. The compound also displayed an IC50 in experiment [3] of 0.68 µM.

As for `NC(=O)c1ccc(OC(F)(F)F)c(Nc2nc3c(ccc4cnccc43)s2)c1` [Example 114, 3-(Thiazolo[4,5-f]isoquinolin-2-ylamino)-4-trifluoromethoxy-benzamide.TFA], the Kd in experiment [1] was 1.2 µM; in experiment [2], 4.6 µM. The compound also gave a half-inhibitory concentration (IC50) in experiment [3] of roughly 2.2 µM.

For the compound `COc1ccc(P(=O)(O)O)cc1Nc1nc2c(ccc3c2ncn3C)s1` [Example 68, [4-Methoxy-3-(6-methyl-6H-imidazo[4′,5′:3,4]benzo[2,1-d]thiazol-2-ylamino)-phenyl]-phosphonic acid.HCl], the Kd in experiment [1] was determined as 7.5 µM; in experiment [2], 12 µM. Besides, the IC50 in experiment [3] stood at 7.5 µM.

Take `COc1ccc(S(C)(=O)=O)cc1Nc1nc2c(ccc3c2cnn3CCC(C)C)s1` [Example 109, (5-Methanesulfonyl-2-methoxy-phenyl)-[6-(3-methyl-butyl)-6H-3-thia-1,6,7-triaza-as-indacen-2-yl]-amine.TFA]: the Kd was greater than 95 µM in experiment [1] and 2.3 µM in experiment [2]. In experiment [3], this compound gave an IC50 of roughly 2 µM.

With `COc1ccc(F)cc1Nc1nc2c(ccc3cnccc32)s1` [Example 99, (5-Fluoro-2-methoxy-phenyl)-thiazolo[4,5-f]isoquinolin-2-yl-amine.TFA], the values for the Kd in experiment [1] and in experiment [2] were 20 µM and 3.2 µM, respectively. In experiment [3], it took 0.87 µM to reach half-maximal inhibition (IC50).

As for `CCOc1ccncc1Nc1nc2c(ccc3nc(C)n(CC)c32)s1` [Example 155, N-(4-Ethoxypyridin-3-yl)-8-ethyl-7-methyl-8H-imidazo[4′,5′:5,6]benzo[1,2-d]thiazol-2-amine.TFA], the Kd in experiment [1] was found to be 0.72 µM; in experiment [2] it was 0.14 µM. Further, the IC50 in experiment [3] is 0.15 µM.
